PubChem BioAssay AID200 (DTP/NCI, 2004)
Several values for one entry are separate records, joined by “and”; a condition that tells them apart may be missing. Equal entries are not always repeated. Inconclusive results and toxic doses are left out. Where a SMILES comes first, the peptide text is derived from it.

Tested on: B6C3F1 mice, B16 melanoma ip, median survival T/C
Assay: NCI In Vivo Anticancer Drug Screen. Data for tumor model B16 Melanoma (intraperitoneal) in B6C3F1 mice
Settings: endpoint: median survival time, higher = longer survival
Summary of the method: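 Mice bearing transplanted tumor were dosed with compound or vehicle, and survival was recorded. Activity is expressed as the treated-group measurement (T) divided by the vehicle control measurement (C).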

[1] = dose: 12.5 mg/kg/injection, schedule: Q01DX009 (ip), vehicle: Klucel (hydroxypropylcellulose) (HPC)
[2] = dose: 25.0 mg/kg/injection, schedule: Q01DX009 (ip), vehicle: Klucel (hydroxypropylcellulose) (HPC)
[3] = dose: 50.0 mg/kg/injection, schedule: Q01DX009 (ip), vehicle: Klucel (hydroxypropylcellulose) (HPC)
[4] = dose: 100.0 mg/kg/injection, schedule: Q01DX009 (ip), vehicle: Klucel (hydroxypropylcellulose) (HPC)
[5] = dose: 200.0 mg/kg/injection, schedule: Q01DX009 (ip), vehicle: Klucel (hydroxypropylcellulose) (HPC)
[6] = dose: 12.5 mg/kg/injection, schedule: Q01DX009 (ip), vehicle: saline
[7] = dose: 25.0 mg/kg/injection, schedule: Q01DX009 (ip), vehicle: saline
[8] = dose: 50.0 mg/kg/injection, schedule: Q01DX009 (ip), vehicle: saline
[9] = dose: 100.0 mg/kg/injection, schedule: Q01DX009 (ip), vehicle: saline
[10] = dose: 5.0 mg/kg/injection, schedule: Q01DX009 (ip), vehicle: saline
[11] = dose: 10.0 mg/kg/injection, schedule: Q01DX009 (ip), vehicle: saline
[12] = dose: 25.0 mg/kg/injection, schedule: Q01DX009 (ip), vehicle: saline with Tween-80
[13] = dose: 50.0 mg/kg/injection, schedule: Q01DX009 (ip), vehicle: saline with Tween-80
[14] = dose: 100.0 mg/kg/injection, schedule: Q01DX009 (ip), vehicle: saline with Tween-80
[15] = dose: 6.25 mg/kg/injection, schedule: Q01DX009 (ip), vehicle: saline with Tween-80
[16] = dose: 12.5 mg/kg/injection, schedule: Q01DX009 (ip), vehicle: saline with Tween-80
[17] = dose: 200.0 mg/kg/injection, schedule: Q01DX009 (ip), vehicle: saline with Tween-80

CSCCC(NC(=O)CNC(=O)OCc1ccccc1)C(=O)O (configuration not stated)
T/C (dose: 3.0 mg/kg/injection, schedule: Q01DX009 (ip), vehicle: Klucel (hydroxypropylcellulose) (HPC)): 101 % of control and 103 % of control
T/C (dose: 6.0 mg/kg/injection, schedule: Q01DX009 (ip), vehicle: Klucel (hydroxypropylcellulose) (HPC)): 95 % of control
T/C (dose: 6.25 mg/kg/injection, schedule: Q01DX009 (ip), vehicle: Klucel (hydroxypropylcellulose) (HPC)): 93 % of control
T/C (dose: 12.0 mg/kg/injection, schedule: Q01DX009 (ip), vehicle: Klucel (hydroxypropylcellulose) (HPC)): 101 % of control and 103 % of control
T/C [1]: 97 % of control
T/C [2]: 93 % of control and 94 % of control
T/C [3]: 95 % of control and 99 % of control and 102 % of control
T/C [4]: 95 % of control
T/C [5]: 101 % of control
T/C (dose: 400.0 mg/kg/injection, schedule: Q01DX009 (ip), vehicle: Klucel (hydroxypropylcellulose) (HPC)): 95 % of control

c1cc[c]([Sn]([NH]c2ncnc3[nH]cnc23)([NH]c2ncnc3[nH]cnc23)[c]2ccccc2)cc1
T/C [6]: 105 % of control
T/C [7]: 100 % of control
T/C [8]: 100 % of control
T/C [9]: 106 % of control
T/C (dose: 200.0 mg/kg/injection, schedule: Q01DX009 (ip), vehicle: saline): 116 % of control

C=C(C)[C@H]1CN[C@H](C(=O)O)[C@H]1CC(=O)O
T/C (dose: 0.31 mg/kg/injection, schedule: Q01DX009 (ip), vehicle: saline): 96 % of control
T/C (dose: 0.62 mg/kg/injection, schedule: Q01DX009 (ip), vehicle: saline): 100 % of control
T/C (dose: 1.25 mg/kg/injection, schedule: Q01DX009 (ip), vehicle: saline): 91 % of control
T/C (dose: 2.5 mg/kg/injection, schedule: Q01DX009 (ip), vehicle: saline): 100 % of control
T/C [10]: 90 % of control
T/C (dose: 6.25 mg/kg/injection, schedule: Q01DX009 (ip), vehicle: saline): 102 % of control
T/C [11]: 86 % of control
T/C [6]: 101 % of control
T/C [7]: 93 % of control

OC(CN1CCCC2CCCCC21)c1cc2ccccc2c2ccccc12 (configuration not stated)
T/C [12]: 100 % of control
T/C [13]: 100 % of control
T/C [14]: 96 % of control and 97 % of control

NC(CSC(c1ccccc1)(c1ccccc1)c1ccccc1)C(=O)O (configuration not stated)
T/C (dose: 4.0 mg/kg/injection, schedule: Q01DX009 (ip), vehicle: Klucel (hydroxypropylcellulose) (HPC)): 120 % of control
T/C (dose: 16.0 mg/kg/injection, schedule: Q01DX009 (ip), vehicle: Klucel (hydroxypropylcellulose) (HPC)): 124 % of control

COc1cc2c(c(OC)c1O)-c1ccc(OC)c(=O)cc1[C@@H](NC(=O)C(F)(F)F)CC2
T/C (dose: 0.62 mg/kg/injection, schedule: Q01DX009 (ip), vehicle: Klucel (hydroxypropylcellulose) (HPC)): 119 % of control
T/C (dose: 0.63 mg/kg/injection, schedule: Q01DX009 (ip), vehicle: Klucel (hydroxypropylcellulose) (HPC)): 122 % of control
T/C (dose: 1.25 mg/kg/injection, schedule: Q01DX009 (ip), vehicle: Klucel (hydroxypropylcellulose) (HPC)): 118 % of control
T/C (dose: 2.5 mg/kg/injection, schedule: Q01DX009 (ip), vehicle: Klucel (hydroxypropylcellulose) (HPC)): 120 % of control
T/C (dose: 4.17 mg/kg/injection, schedule: Q01DX009 (ip), vehicle: Klucel (hydroxypropylcellulose) (HPC)): 156 % of control

COc1ccc(C[C@H](N)C(=O)NC2C(CO)OC(n3cnc4c(N(C)C)ncnc43)C2O)cc1 (some centres not stated)
T/C [10]: 103 % of control and 105 % of control
T/C [11]: 114 % of control and 106 % of control
T/C (dose: 20.0 mg/kg/injection, schedule: Q01DX009 (ip), vehicle: saline): 112 % of control and 116 % of control
T/C (dose: 40.0 mg/kg/injection, schedule: Q01DX009 (ip), vehicle: saline): 118 % of control and 122 % of control

C/C(=N/NC(N)=S)c1ccc2ccccc2c1
T/C [15]: 106 % of control
T/C [16]: 108 % of control
T/C [12]: 108 % of control

CC(C)(C)C(=O)Oc1ccc(N=C(N)N)cc1
T/C [6]: 94 % of control
T/C [7]: 94 % of control
T/C [8]: 97 % of control
T/C [9]: 92 % of control

CC1(c2ccc(Cl)cc2)OC(=O)C(=Cc2ccc([N+](=O)[O-])s2)C(=O)O1 (configuration not stated)
T/C [15]: 89 % of control
T/C [16]: 86 % of control
T/C [12]: 90 % of control
T/C [13]: 89 % of control

COc1cc(C[C@@H]2COC(=O)[C@]2(O)Cc2ccc(O)c(OC)c2)ccc1O
T/C (dose: 1.0 mg/kg/injection, schedule: Q01DX009 (ip), vehicle: saline + alcohol): 102 % of control
T/C (dose: 2.0 mg/kg/injection, schedule: Q01DX009 (ip), vehicle: saline + alcohol): 88 % of control
T/C (dose: 4.0 mg/kg/injection, schedule: Q01DX009 (ip), vehicle: saline + alcohol): 91 % of control
T/C (dose: 8.0 mg/kg/injection, schedule: Q01DX009 (ip), vehicle: saline + alcohol): 101 % of control
T/C (dose: 16.0 mg/kg/injection, schedule: Q01DX009 (ip), vehicle: saline + alcohol): 86 % of control

COC(=O)C(Cc1ccc(O)cc1)NC(=O)C(Cc1ccccc1)NC(C)=O (stereo not drawn) (Ac-Phe-Tyr-OMe; configuration not given here)
T/C [2]: 92 % of control
T/C [3]: 92 % of control
T/C [4]: 92 % of control
T/C [5]: 86 % of control

COC1CC(C)C(OC)c2cc(O)cc(c2O)NC(=O)/C(C)=C/C=C\C(C)C(OC(N)=O)/C(C)=C\C(C)C1OC (configuration not stated)
T/C (dose: 0.31 mg/kg/injection, schedule: Q01DX005 (iv), vehicle: other): 94 % of control
T/C (dose: 0.31 mg/kg/injection, schedule: Q01DX009 (ip), vehicle: other): 109 % of control
T/C (dose: 0.31 mg/kg/injection, schedule: Q01DX009 (ip), vehicle: saline with Tween-80): 98 % of control
T/C (dose: 0.62 mg/kg/injection, schedule: Q01DX005 (iv), vehicle: other): 101 % of control
T/C (dose: 0.62 mg/kg/injection, schedule: Q01DX009 (ip), vehicle: saline with Tween-80): 112 % of control
T/C (dose: 1.25 mg/kg/injection, schedule: Q01DX005 (iv), vehicle: other): 93 % of control
T/C (dose: 1.25 mg/kg/injection, schedule: Q01DX009 (ip), vehicle: other): 117 % of control
T/C (dose: 2.5 mg/kg/injection, schedule: Q01DX005 (iv), vehicle: other): 102 % of control
T/C (dose: 2.5 mg/kg/injection, schedule: Q01DX009 (ip), vehicle: other): 119 % of control
T/C (dose: 5.0 mg/kg/injection, schedule: Q01DX005 (iv), vehicle: other): 95 % of control
T/C (dose: 5.0 mg/kg/injection, schedule: Q01DX009 (ip), vehicle: saline with Tween-80): 171 % of control
T/C (dose: 10.0 mg/kg/injection, schedule: Q01DX005 (iv), vehicle: other): 109 % of control
T/C (dose: 10.0 mg/kg/injection, schedule: Q01DX009 (ip), vehicle: other): 114 % of control

CNc1nc(NC)nc(NC)n1
T/C [1]: 91 % of control
T/C [2]: 96 % of control
T/C [3]: 100 % of control
T/C [4]: 106 % of control

CC(C)CC(NC(=O)OCc1ccccc1)C(=O)O (configuration not stated)
T/C [16]: 108 % of control
T/C [12]: 102 % of control
T/C [13]: 102 % of control and 106 % of control
T/C [14]: 112 % of control and 101 % of control
T/C [17]: 105 % of control

c1ccc(Cc2ccccc2)cc1
T/C [13]: 90 % of control
T/C [14]: 90 % of control
T/C [17]: 95 % of control

C=C(C)[C@@H]1CC[C@]2(C(=O)OC)CC[C@]3(C)[C@H](CC[C@@H]4[C@@]5(C)CC[C@H](O)C(C)(C)[C@@H]5CC[C@]43C)[C@@H]12
T/C [2]: 107 % of control
T/C [3]: 86 % of control

CCOC(=O)Nc1cc2c(c(N)n1)N=C(c1ccc(Cl)cc1Cl)CN2
T/C (dose: 1.5 mg/kg/injection, schedule: Q01DX009 (ip), vehicle: saline with Tween-80): 113 % of control and 119 % of control
T/C (dose: 3.0 mg/kg/injection, schedule: Q01DX009 (ip), vehicle: saline with Tween-80): 115 % of control
T/C (dose: 6.0 mg/kg/injection, schedule: Q01DX009 (ip), vehicle: saline with Tween-80): 115 % of control
T/C [16]: 155 % of control

CC(=O)Nc1ccc(N=Nc2c(O)c(S(=O)(=O)O)cc3cc(S(=O)(=O)O)ccc23)cc1
T/C [13]: 111 % of control
T/C [14]: 100 % of control
T/C [17]: 98 % of control
